For test [1], the target named is Hepatocyte growth factor receptor (Homo sapiens, UniProt P08581).
A further test addresses T1, Ephrin type-A receptor 3 (Homo sapiens, UniProt P29320).
T1 sequence (P29320 whole entry): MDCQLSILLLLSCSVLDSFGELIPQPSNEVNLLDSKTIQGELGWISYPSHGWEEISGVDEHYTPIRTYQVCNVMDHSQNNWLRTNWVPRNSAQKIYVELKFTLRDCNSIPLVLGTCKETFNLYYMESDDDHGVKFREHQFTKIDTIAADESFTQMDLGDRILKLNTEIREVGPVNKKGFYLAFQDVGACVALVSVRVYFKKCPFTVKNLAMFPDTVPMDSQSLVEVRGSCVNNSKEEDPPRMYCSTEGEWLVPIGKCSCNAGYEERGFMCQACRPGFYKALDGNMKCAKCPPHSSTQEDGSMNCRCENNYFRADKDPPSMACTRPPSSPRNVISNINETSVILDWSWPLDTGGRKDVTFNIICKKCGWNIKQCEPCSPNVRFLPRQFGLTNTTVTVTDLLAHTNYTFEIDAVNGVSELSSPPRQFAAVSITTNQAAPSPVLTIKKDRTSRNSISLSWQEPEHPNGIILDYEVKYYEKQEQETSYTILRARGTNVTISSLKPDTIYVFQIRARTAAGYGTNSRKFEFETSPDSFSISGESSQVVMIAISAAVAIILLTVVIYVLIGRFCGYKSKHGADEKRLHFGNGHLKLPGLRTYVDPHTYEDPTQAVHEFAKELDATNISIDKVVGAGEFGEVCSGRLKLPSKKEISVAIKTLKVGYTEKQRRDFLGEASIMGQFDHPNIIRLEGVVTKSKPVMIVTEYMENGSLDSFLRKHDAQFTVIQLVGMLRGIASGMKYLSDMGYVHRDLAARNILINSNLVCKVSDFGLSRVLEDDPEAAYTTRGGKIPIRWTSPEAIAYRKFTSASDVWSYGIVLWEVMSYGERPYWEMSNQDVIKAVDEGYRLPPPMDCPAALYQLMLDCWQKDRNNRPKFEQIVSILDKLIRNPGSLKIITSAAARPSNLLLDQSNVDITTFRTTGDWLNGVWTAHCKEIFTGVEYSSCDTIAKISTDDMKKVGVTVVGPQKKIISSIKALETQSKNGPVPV

Test [2] addresses Tyrosine-protein kinase BTK (Homo sapiens, UniProt Q06187).
The target of test [3] is RAF proto-oncogene serine/threonine-protein kinase (Homo sapiens, UniProt P04049).
In test [4] the target is T2, Discoidin domain-containing receptor 2 (Homo sapiens, UniProt Q16832).
T2 sequence (Q16832 whole entry): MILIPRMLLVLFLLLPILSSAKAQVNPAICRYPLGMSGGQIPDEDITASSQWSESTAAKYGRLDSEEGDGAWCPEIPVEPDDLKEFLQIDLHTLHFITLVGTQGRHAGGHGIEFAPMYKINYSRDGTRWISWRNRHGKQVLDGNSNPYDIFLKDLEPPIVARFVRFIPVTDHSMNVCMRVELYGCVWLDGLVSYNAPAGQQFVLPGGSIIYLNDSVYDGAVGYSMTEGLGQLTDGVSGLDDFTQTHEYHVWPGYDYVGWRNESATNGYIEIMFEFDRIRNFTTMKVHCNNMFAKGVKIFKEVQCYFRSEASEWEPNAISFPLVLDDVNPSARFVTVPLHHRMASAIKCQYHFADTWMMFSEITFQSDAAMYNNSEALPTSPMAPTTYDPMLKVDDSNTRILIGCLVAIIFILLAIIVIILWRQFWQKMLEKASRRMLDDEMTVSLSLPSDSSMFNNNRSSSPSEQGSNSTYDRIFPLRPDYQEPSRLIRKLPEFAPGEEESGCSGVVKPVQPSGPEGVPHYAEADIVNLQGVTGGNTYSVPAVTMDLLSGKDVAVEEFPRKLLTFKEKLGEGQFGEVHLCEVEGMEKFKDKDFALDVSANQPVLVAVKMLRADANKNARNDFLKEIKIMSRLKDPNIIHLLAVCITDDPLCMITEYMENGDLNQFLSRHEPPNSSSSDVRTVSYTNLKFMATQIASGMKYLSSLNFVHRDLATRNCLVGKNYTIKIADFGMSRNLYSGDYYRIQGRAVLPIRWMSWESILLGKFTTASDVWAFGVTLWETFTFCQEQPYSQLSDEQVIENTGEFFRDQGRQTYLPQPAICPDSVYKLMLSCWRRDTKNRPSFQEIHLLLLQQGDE

The target of test [5] is T3, Receptor-type tyrosine-protein kinase FLT3 (Homo sapiens, UniProt P36888).
T3 sequence (P36888 whole entry): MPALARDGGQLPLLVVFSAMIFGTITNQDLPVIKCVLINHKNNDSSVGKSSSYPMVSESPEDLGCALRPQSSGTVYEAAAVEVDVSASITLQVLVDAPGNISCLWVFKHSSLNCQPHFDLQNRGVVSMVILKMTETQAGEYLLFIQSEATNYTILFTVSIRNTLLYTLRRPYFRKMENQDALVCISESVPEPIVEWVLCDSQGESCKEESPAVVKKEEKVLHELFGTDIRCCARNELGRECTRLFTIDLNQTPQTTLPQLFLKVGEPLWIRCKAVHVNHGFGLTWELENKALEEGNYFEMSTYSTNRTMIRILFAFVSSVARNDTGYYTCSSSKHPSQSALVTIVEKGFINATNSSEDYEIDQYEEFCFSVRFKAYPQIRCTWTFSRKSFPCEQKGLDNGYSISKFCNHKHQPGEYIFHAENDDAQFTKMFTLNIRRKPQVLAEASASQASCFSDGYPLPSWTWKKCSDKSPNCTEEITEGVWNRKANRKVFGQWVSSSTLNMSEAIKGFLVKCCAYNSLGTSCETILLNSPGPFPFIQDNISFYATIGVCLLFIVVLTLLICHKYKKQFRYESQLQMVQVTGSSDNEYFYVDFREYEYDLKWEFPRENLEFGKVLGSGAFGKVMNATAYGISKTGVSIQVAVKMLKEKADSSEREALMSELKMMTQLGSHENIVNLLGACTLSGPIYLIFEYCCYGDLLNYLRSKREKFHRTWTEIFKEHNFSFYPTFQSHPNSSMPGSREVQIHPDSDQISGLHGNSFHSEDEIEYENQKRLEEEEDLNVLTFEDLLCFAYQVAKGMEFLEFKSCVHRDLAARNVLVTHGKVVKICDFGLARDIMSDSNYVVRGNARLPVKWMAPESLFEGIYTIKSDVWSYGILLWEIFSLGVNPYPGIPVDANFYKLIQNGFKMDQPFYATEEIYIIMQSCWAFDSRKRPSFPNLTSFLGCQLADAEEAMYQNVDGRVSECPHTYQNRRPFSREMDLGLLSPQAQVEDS

Test [6] deals with Casein kinase I isoform gamma-1 (Homo sapiens, UniProt Q9HCP0).

As to `COCC(=O)NC/C=C/c1ccc2ncnc(Nc3ccc(Oc4ccc(C)nc4)c(C)c3)c2c1` [CP-724714], the dissociation constant Kd (in test [1]; at Ephrin type-A receptor 3; in test [2]; in test [3]; in test [4]; in test [5]) was over 10 µM in each case. Further, the Kd (usually a measure of binding affinity in units of concentration) in test [6] was over 10 µM.

Regarding `Nc1nc(Nc2ccc(S(N)(=O)=O)cc2)nn1C(=O)c1c(F)cccc1F` [JNJ-7706621], the Kd (at Ephrin type-A receptor 3; in test [3]; in test [4]) was over 10 µM in each case.

Consider `CCOc1cc2ncc(C#N)c(Nc3ccc(F)c(Cl)c3)c2cc1NC(=O)/C=C/CN(C)C` [PELITINIB], for which the Kd in test [1] is 6.2 µM; in test [2] it was 4.9 µM; in test [3], over 10 µM; in test [4] it was over 10 µM; in test [5] it was over 10 µM; in test [6] it was over 10 µM.

`Oc1ccc(-c2nc(-c3ccncc3)c(-c3ccc(F)cc3)[nH]2)cc1` [SB-202190]: the equilibrium dissociation constant (Kd) in test [1] is over 10 µM; at Ephrin type-A receptor 3, over 10 µM; in test [2], over 10 µM; in test [4] it was 1.6 µM; in test [5], over 10 µM; in test [6], over 10 µM.

Turning to `NC(=O)c1ccc(-c2nc(-c3ccc4c(c3)OCO4)c(-c3ccccn3)[nH]2)cc1` [SB-431542], the Kd (in test [1]; on Ephrin type-A receptor 3; in test [2]; in test [3]; in test [4]) was over 10 µM throughout.

These data come from ChEMBL document CHEMBL1150977, “A quantitative analysis of kinase inhibitor selectivity” (Nat Biotechnol, 2008).
